Assay results reported in PubChem BioAssay AID274 (DTP/NCI, 2004).
Values joined by “and” are separate entries in the source; they are usually repeats but may differ in a detail not shown here. Identical values can stand only once. Toxic doses and inconclusive results are not listed. Numbered stars: 1 amine (or outer) side, 2 acyl side, 3 side chain; on linkers, the order of the positions; unused ones are H or OH. Bridge positions count the residues as written; N and C are the ends. Square brackets hold non-standard residues; d marks the D form. Peptide text beside a SMILES is read from it. I, II: the chains in the order shown. * marks the point of attachment. Actinocin(9to1) = Cc1c2oc3c(C)ccc(C(=O)[*:1])c3nc-2c(C(=O)[*:2])c(N)c1=O; Trt = c1ccc(C(c2ccccc2)(c2ccccc2)*)cc1; aThr = C[C@H](O)[C@H](N)C(=O)O; NMeV = CN[C@H](C(=O)O)C(C)C; Cbz = O=C(OCc1ccccc1)*; Bn = c1ccc(C*)cc1; βAla = NCCC(=O)O; Sar = CNCC(=O)O

System: BDF1 mice, Lewis lung carcinoma iv, survival T/C
Experiment: NCI In Vivo Anticancer Drug Screen. Data for tumor model Lewis Lung Carcinoma (intravenous) in B6D2F1 (BDF1) mice
Conditions: endpoint: median survival time, higher = longer survival
Description: The antitumor activity of compounds was measured in mice bearing transplantable tumors. Survival or tumor size were measured and the results are expressed as the measurement made in the treated group (T) divided by the measurement made in the vehicle treated control group (C). The tumor model used in this assay is Lewis Lung Carcinoma (intravenous) in B6D2F1 (BDF1) mice

[1] = dose: 100.0 mg/kg/injection, schedule: Q01DX009 (ip), vehicle: saline
[2] = dose: 200.0 mg/kg/injection, schedule: Q01DX009 (ip), vehicle: saline
[3] = dose: 12.5 mg/kg/injection, schedule: Q01DX009 (ip), vehicle: saline
[4] = dose: 25.0 mg/kg/injection, schedule: Q01DX009 (ip), vehicle: saline
[5] = dose: 50.0 mg/kg/injection, schedule: Q01DX009 (ip), vehicle: Klucel (hydroxypropylcellulose) (HPC)
[6] = dose: 100.0 mg/kg/injection, schedule: Q01DX009 (ip), vehicle: Klucel (hydroxypropylcellulose) (HPC)
[7] = dose: 200.0 mg/kg/injection, schedule: Q01DX009 (ip), vehicle: Klucel (hydroxypropylcellulose) (HPC)
[8] = dose: 6.25 mg/kg/injection, schedule: Q01DX009 (ip), vehicle: saline
[9] = dose: 50.0 mg/kg/injection, schedule: Q01DX009 (ip), vehicle: saline

Nc1ncnc2c1ncn2C1OC(COP(=O)(O)O)C(O)C1O (centres undefined)
T/C (dose: 12.5 mg/kg/injection, schedule: Q01DX009 (ip), vehicle: water): 104 % of control
T/C (dose: 25.0 mg/kg/injection, schedule: Q01DX009 (ip), vehicle: water): 112 % of control
T/C (dose: 50.0 mg/kg/injection, schedule: Q01DX009 (ip), vehicle: water): 100 % of control
T/C [1]: 97 % of control
T/C (dose: 100.0 mg/kg/injection, schedule: Q01DX009 (ip), vehicle: water): 103 % of control
T/C [2]: 118 % of control
T/C (dose: 200.0 mg/kg/injection, schedule: Q01DX009 (ip), vehicle: water): 100 % of control
T/C (dose: 400.0 mg/kg/injection, schedule: Q01DX009 (ip), vehicle: saline): 96 % of control
T/C (dose: 800.0 mg/kg/injection, schedule: Q01DX009 (ip), vehicle: saline): 108 % of control

COC1OC(CO)C(O)C(NC(=O)N(C)N=O)C1O (centres undefined)
T/C [3]: 109 % of control
T/C [4]: 108 % of control and 115 % of control
T/C [1]: 123 % of control
T/C [2]: 152 % of control

COC(=O)C(CSC(c1ccccc1)(c1ccccc1)c1ccccc1)NC(=O)C(CSCc1ccccc1)NC(=O)CCNC(=O)OCc1ccccc1 (centres undefined) ({Cbz-βAla}-Cys(Bn)-Cys(Trt)-OMe; configuration not given here)
T/C (dose: 12.5 mg/kg/injection, schedule: Q01DX009 (ip), vehicle: Klucel (hydroxypropylcellulose) (HPC)): 104 % of control
T/C (dose: 25.0 mg/kg/injection, schedule: Q01DX009 (ip), vehicle: Klucel (hydroxypropylcellulose) (HPC)): 96 % of control
T/C [5]: 103 % of control
T/C [6]: 98 % of control
T/C [7]: 97 % of control

CC(=O)N(C)c1ccc(Nc2cc(C)[nH]c3ccc4ncnc4c23)cc1
T/C [8]: 97 % of control
T/C [3]: 93 % of control
T/C [4]: 93 % of control
T/C [9]: 117 % of control

S=P(N1CC1)(N1CC1)N1CC1
T/C (dose: 1.0 mg/kg/injection, schedule: Q01DX009 (ip), vehicle: saline with Tween-80): 106 % of control and 110 % of control and 116 % of control
T/C (dose: 2.0 mg/kg/injection, schedule: Q01DX009 (ip), vehicle: saline with Tween-80): 113 % of control (2×) and 116 % of control
T/C (dose: 4.0 mg/kg/injection, schedule: Q01DX009 (ip), vehicle: saline with Tween-80): 118 % of control and 119 % of control and 123 % of control
T/C (dose: 8.0 mg/kg/injection, schedule: Q01DX009 (ip), vehicle: saline with Tween-80): 100 % of control and 110 % of control
T/C (dose: 16.0 mg/kg/injection, schedule: Q01DX009 (ip), vehicle: saline with Tween-80): 112 % of control

OC(CBr)C(O)C(O)C(O)CBr (centres undefined)
T/C [5]: 117 % of control
T/C [6]: 109 % of control
T/C [7]: 103 % of control
T/C (dose: 400.0 mg/kg/injection, schedule: Q01DX009 (ip), vehicle: Klucel (hydroxypropylcellulose) (HPC)): 111 % of control
T/C (dose: 800.0 mg/kg/injection, schedule: Q01DX009 (ip), vehicle: Klucel (hydroxypropylcellulose) (HPC)): 97 % of control

CSCCC(N)C(=O)O (centres undefined)
T/C (dose: 18.75 mg/kg/injection, schedule: Q01DX009 (ip), vehicle: saline with Tween-80): 101 % of control
T/C (dose: 37.5 mg/kg/injection, schedule: Q01DX009 (ip), vehicle: saline with Tween-80): 93 % of control
T/C (dose: 40.0 mg/kg/injection, schedule: Q01DX009 (ip), vehicle: saline with Tween-80): 100 % of control
T/C (dose: 75.0 mg/kg/injection, schedule: Q01DX009 (ip), vehicle: saline with Tween-80): 101 % of control
T/C (dose: 80.0 mg/kg/injection, schedule: Q01DX009 (ip), vehicle: saline with Tween-80): 97 % of control
T/C (dose: 150.0 mg/kg/injection, schedule: Q01DX009 (ip), vehicle: saline with Tween-80): 91 % of control
T/C (dose: 160.0 mg/kg/injection, schedule: Q01DX009 (ip), vehicle: saline with Tween-80): 95 % of control
T/C (dose: 320.0 mg/kg/injection, schedule: Q01DX009 (ip), vehicle: saline with Tween-80): 100 % of control

COc1cc2c(c(OC)c1O)-c1ccc(OC)c(=O)cc1[C@@H](NC(=O)C(F)(F)F)CC2
T/C (dose: 0.62 mg/kg/injection, schedule: Q01DX009 (ip), vehicle: Klucel (hydroxypropylcellulose) (HPC)): 101 % of control
T/C (dose: 1.25 mg/kg/injection, schedule: Q01DX009 (ip), vehicle: Klucel (hydroxypropylcellulose) (HPC)): 87 % of control
T/C (dose: 2.5 mg/kg/injection, schedule: Q01DX009 (ip), vehicle: Klucel (hydroxypropylcellulose) (HPC)): 88 % of control

Cc1c2oc3c(C)ccc(C(=O)N[C@@H]4C(=O)N[C@H](C(C)C)C(=O)N5CCC[C@H]5C(=O)N(C)CC(=O)N(C)[C@@H](C(C)C)C(=O)O[C@H]4C)c3nc-2c(C(=O)N[C@@H]2C(=O)N[C@H](C(C)C)C(=O)N3CCC[C@H]3C(=O)N(C)CC(=O)N(C)[C@@H](C(C)C)C(=O)O[C@H]2C)c(N)c1=O (I: [aThr][dV]P[Sar][NMeV] / II: [aThr][dV]P[Sar][NMeV]; ester I:1-I:C, II:1-II:C; linker I:N-II:N via Actinocin(9to1))
T/C (dose: 65.0 micrograms/kg/injection, schedule: Q04DX003 (ip), vehicle: saline + alcohol): 91 % of control
T/C (dose: 108.0 micrograms/kg/injection, schedule: Q04DX003 (ip), vehicle: saline + alcohol): 92 % of control and 94 % of control
T/C (dose: 180.0 micrograms/kg/injection, schedule: Q04DX003 (ip), vehicle: saline + alcohol): 97 % of control and 104 % of control
T/C (dose: 259.0 micrograms/kg/injection, schedule: Q01DX001 (ip), vehicle: saline + alcohol): 94 % of control
T/C (dose: 300.0 micrograms/kg/injection, schedule: Q04DX003 (ip), vehicle: saline + alcohol): 95 % of control and 106 % of control
T/C (dose: 432.0 micrograms/kg/injection, schedule: Q01DX001 (ip), vehicle: saline + alcohol): 98 % of control

CN1C(=O)NC(c2ccc(Cl)cc2)(c2ccc(Cl)cc2)C1=O
T/C (dose: 12.5 mg/kg/injection, schedule: Q01DX009 (ip), vehicle: distilled water + Tween-80): 102 % of control
T/C (dose: 25.0 mg/kg/injection, schedule: Q01DX009 (ip), vehicle: distilled water + Tween-80): 124 % of control
T/C (dose: 50.0 mg/kg/injection, schedule: Q01DX009 (ip), vehicle: distilled water + Tween-80): 116 % of control
T/C (dose: 200.0 mg/kg/injection, schedule: Q01DX009 (ip), vehicle: distilled water + Tween-80): 105 % of control

CC[C@@]1(O)C[C@H](OC2CC(N(C)C)C(OC3CC(O)C(OC4CCC(=O)C(C)O4)C(C)O3)C(C)O2)c2c(cc3c(c2O)C(=O)c2c(O)ccc(O)c2C3=O)[C@H]1C(=O)OC (some centres undefined)
T/C (dose: 0.12 mg/kg/injection, schedule: Q01DX009 (ip), vehicle: water): 103 % of control
T/C (dose: 0.25 mg/kg/injection, schedule: Q01DX009 (ip), vehicle: water): 103 % of control and 107 % of control
T/C (dose: 0.5 mg/kg/injection, schedule: Q01DX009 (ip), vehicle: water): 96 % of control and 101 % of control
T/C (dose: 0.88 mg/kg/injection, schedule: Q01DX009 (ip), vehicle: water): 117 % of control
T/C (dose: 1.0 mg/kg/injection, schedule: Q01DX009 (ip), vehicle: water): 103 % of control
T/C (dose: 1.7 mg/kg/injection, schedule: Q04DX003 (ip), vehicle: water): 94 % of control
T/C (dose: 1.92 mg/kg/injection, schedule: Q04DX003 (ip), vehicle: water): 110 % of control
T/C (dose: 2.9 mg/kg/injection, schedule: Q04DX003 (ip), vehicle: water): 100 % of control and 117 % of control
T/C (dose: 3.9 mg/kg/injection, schedule: Q04DX003 (ip), vehicle: water): 118 % of control
T/C (dose: 4.8 mg/kg/injection, schedule: Q01DX001 (ip), vehicle: water): 109 % of control
T/C (dose: 4.8 mg/kg/injection, schedule: Q04DX003 (ip), vehicle: water): 109 % of control and 122 % of control
T/C (dose: 6.86 mg/kg/injection, schedule: Q01DX001 (ip), vehicle: water): 123 % of control
T/C (dose: 8.0 mg/kg/injection, schedule: Q04DX003 (ip), vehicle: water): 104 % of control
T/C (dose: 13.3 mg/kg/injection, schedule: Q04DX003 (ip), vehicle: water): 86 % of control

C[C@H](CCC(=O)O)[C@H]1CC[C@H]2[C@@H]3[C@H](O)C[C@@H]4C[C@H](O)CC[C@]4(C)[C@H]3C[C@H](O)[C@]12C (tested in a mixture with another compound)
T/C (dose: 50.0 mg/kg/injection, schedule: Q01DX009 (ip), vehicle: saline with Tween-80): 109 % of control
T/C (dose: 100.0 mg/kg/injection, schedule: Q01DX009 (ip), vehicle: saline with Tween-80): 108 % of control
T/C (dose: 200.0 mg/kg/injection, schedule: Q01DX009 (ip), vehicle: saline with Tween-80): 121 % of control

O=C1C=CC(n2cc(F)c(=O)[nH]c2=O)O1 (centres undefined)
T/C [8]: 106 % of control
T/C [3]: 96 % of control
T/C [4]: 103 % of control
T/C [9]: 119 % of control
